According to PubChem BioAssay (NCI):
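Briefly, cells in 96-well plates were exposed to five compound concentrations for 48 h, and endpoints were estimated by linear interpolation. TGI marks complete inhibition of growth.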

Experiments:
Experiment in all cases: inhibition of tumour cell growth, NCI panel, 48 h
[1] = system: 786-0 renal
[2] = system: A498 renal
[3] = system: A549 NSCLC
[4] = system: ACHN renal
[5] = system: CAKI-1 renal
[6] = system: CCRF-CEM leukemia
[7] = system: COLO 205 colon
[8] = system: DU-145 prostate
[9] = system: EKVX NSCLC
[10] = system: HCC-2998 colon
[11] = system: HCT-116 colon
[12] = system: HL-60(TB) leukemia
[13] = system: HOP-62 NSCLC
[14] = system: HOP-92 NSCLC
[15] = system: HS 578T breast
[16] = system: IGROV1 ovarian
[17] = system: K-562 leukemia
[18] = system: KM12 colon
[19] = system: LOX IMVI melanoma
[20] = system: M14 melanoma
[21] = system: MALME-3M melanoma
[22] = system: MCF7 breast
[23] = system: MDA-MB-231 breast
[24] = system: MDA-MB-435
[25] = system: MDA-N
[26] = system: MOLT-4 leukemia
[27] = system: NCI-H226 lung
[28] = system: NCI-H23 lung
[29] = system: NCI-H460 lung
[30] = system: NCI-H522 lung
[31] = system: NCI/ADR-RES ovarian
[32] = system: OVCAR-3 ovarian
[33] = system: OVCAR-5 ovarian
[34] = system: OVCAR-8 ovarian
[35] = system: PC-3 prostate
[36] = system: RPMI-8226 leukemia
[37] = system: RXF 393 renal
[38] = system: SF-268 CNS
[39] = system: SF-295 CNS
[40] = system: SF-539 CNS
[41] = system: SK-MEL-2 melanoma
[42] = system: SK-MEL-28 melanoma
[43] = system: SK-MEL-5 melanoma
[44] = system: SK-OV-3 ovarian
[45] = system: SN12C renal
[46] = system: SNB-19 CNS
[47] = system: SR leukemia
[48] = system: SW-620 colon
[49] = system: T-47D breast
[50] = system: TK-10 renal
[51] = system: U251 CNS
[52] = system: UACC-257 melanoma
[53] = system: UACC-62 melanoma
[54] = system: UO-31 renal
[55] = system: HCT-15 colon
[56] = system: HT29 colon
[57] = system: OVCAR-4 ovarian

`O=[N+]([O-])/C=C\c1c[nH]c2ccc(OCc3ccccc3)cc12` showed a TGI [1] of 4.56 µM, a TGI [2] of 22.6 µM and a TGI [3] of 14.8 µM. For the same compound, the TGI [4] was 4.72 µM, the TGI [5] was 53.5 µM and the TGI [6] was > 100 µM. The TGI [7] was 13.4 µM, the TGI [8] was 22.2 µM and the TGI [9] was 29.3 µM. The TGI [10] was 3.66 µM, the TGI [11] was 3.27 µM and the TGI [12] was 8.78 µM. It also gave a TGI [13] of 29.4 µM, a TGI [14] of 19.4 µM and a TGI [15] of 7.24 µM. It also gave a TGI [16] of 15.8 µM, a TGI [17] of 6.88 µM and a TGI [18] of 8.86 µM. The TGI [19] was 3.5 µM, the TGI [20] was 4.49 µM and the TGI [21] was 25.9 µM. For the same compound, the TGI [22] was 73.7 µM, the TGI [23] was 18 µM and the TGI [24] was 4.73 µM. For the same compound, the TGI [25] was 5.56 µM, the TGI [26] was > 100 µM and the TGI [27] was 13.4 µM. It also gave a TGI [28] of 7.33 µM, a TGI [29] of 25.1 µM and a TGI [30] of 22.4 µM. The TGI [31] was 50.1 µM, the TGI [32] was 22.8 µM and the TGI [33] was 25.6 µM. It also gave a TGI [34] of 17.1 µM, a TGI [35] of 21.5 µM and a TGI [36] of 4.62 µM. It also gave a TGI [37] of 6.73 µM, a TGI [38] of 25.6 µM and a TGI [39] of 23.8 µM. It also gave a TGI [40] of 22.6 µM, a TGI [41] of 24 µM and a TGI [42] of 9.47 µM. The TGI [43] was 19.2 µM, the TGI [44] was 31.6 µM and the TGI [45] was 10 µM. The TGI [46] was 16.5 µM, the TGI [47] was 4.91 µM and the TGI [48] was 7.31 µM. The TGI [49] was 12.4 µM, the TGI [50] was 23.1 µM and the TGI [51] was 19 µM. It also gave a TGI [52] of 3.73 µM, a TGI [53] of 14.1 µM and a TGI [54] of 15.2 µM.

`COc1ccc(NS(=O)c2ccccc2OC)cc1` (stereo not given) was tested, and the TGI [1] was > 100 µM, the TGI [3] was 79.8 µM and the TGI [4] was > 100 µM. The TGI [5] was 68.6 µM, the TGI [6] was > 100 µM and the TGI [7] was 48.6 µM. The TGI [8] was > 100 µM, the TGI [9] was > 100 µM and the TGI [11] was > 100 µM. For the same compound, the TGI [55] was > 100 µM, the TGI [12] was > 100 µM and the TGI [13] was > 100 µM. The TGI [15] was 84.5 µM, the TGI [56] was > 100 µM and the TGI [16] was > 100 µM. For the same compound, the TGI [17] was > 100 µM, the TGI [18] was 18.1 µM and the TGI [19] was > 100 µM. For the same compound, the TGI [20] was > 100 µM, the TGI [21] was 41.1 µM and the TGI [22] was 67.3 µM. For the same compound, the TGI [23] was > 100 µM, the TGI [24] was > 100 µM and the TGI [25] was > 100 µM. For the same compound, the TGI [26] was > 100 µM, the TGI [27] was 41.8 µM and the TGI [28] was > 100 µM. The TGI [29] was > 100 µM, the TGI [30] was 52.5 µM and the TGI [31] was > 100 µM. For the same compound, the TGI [32] was > 100 µM, the TGI [57] was > 100 µM and the TGI [33] was > 100 µM. For the same compound, the TGI [34] was > 100 µM, the TGI [36] was > 100 µM and the TGI [38] was 39.6 µM. The TGI [39] was > 100 µM, the TGI [40] was 35.9 µM and the TGI [41] was 46.6 µM. The TGI [42] was > 100 µM, the TGI [43] was 54.4 µM and the TGI [45] was > 100 µM. For the same compound, the TGI [46] was > 100 µM, the TGI [47] was > 100 µM and the TGI [48] was > 100 µM. The TGI [49] was 35.2 µM, the TGI [50] was > 100 µM and the TGI [51] was 67.2 µM. For the same compound, the TGI [52] was > 100 µM, the TGI [53] was 20.5 µM and the TGI [54] was 28.2 µM.
